Laboratory results taken from the kinase profiling compilation of Christmann-Franck et al. (2016).

Experiments:
Assay in all cases: radiometric filter-binding kinase assay
[1] = test system: AKT2 (human), P31751 [S474D]
[2] = target: FGFR1 (human) (UniProt P11362)
[3] = target: MAPK11 (human) (UniProt Q15759)
[4] = target: EPHA2 (human) (UniProt P29317)
[5] = target: PKN2 (human) (UniProt Q16513)
[6] = target: TTK (human) (UniProt P33981)
[7] = target: PIM2 (human) (UniProt Q9P1W9)
[8] = target: DYRK3 (human) (UniProt O43781)
Chain of DYRK3 (human) (O43781 whole entry, looked up): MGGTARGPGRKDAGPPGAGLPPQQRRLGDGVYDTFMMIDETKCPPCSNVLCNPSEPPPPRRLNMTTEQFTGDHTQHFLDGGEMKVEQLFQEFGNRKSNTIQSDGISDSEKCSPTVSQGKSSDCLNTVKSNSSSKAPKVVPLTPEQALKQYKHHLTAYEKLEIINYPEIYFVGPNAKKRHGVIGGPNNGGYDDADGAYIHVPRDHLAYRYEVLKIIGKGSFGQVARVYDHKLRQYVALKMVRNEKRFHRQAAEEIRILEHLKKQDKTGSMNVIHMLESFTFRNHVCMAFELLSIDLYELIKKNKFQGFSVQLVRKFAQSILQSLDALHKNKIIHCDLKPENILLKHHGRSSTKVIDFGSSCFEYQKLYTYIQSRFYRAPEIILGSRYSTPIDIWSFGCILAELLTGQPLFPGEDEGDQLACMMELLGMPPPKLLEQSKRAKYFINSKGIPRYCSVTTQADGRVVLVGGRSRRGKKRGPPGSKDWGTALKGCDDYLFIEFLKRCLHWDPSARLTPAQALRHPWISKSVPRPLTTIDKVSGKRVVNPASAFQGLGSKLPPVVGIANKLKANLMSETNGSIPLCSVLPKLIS

[9] = target: NEK6 (human) (UniProt Q9HC98)
Chain of NEK6 (human) (Q9HC98 whole entry, looked up): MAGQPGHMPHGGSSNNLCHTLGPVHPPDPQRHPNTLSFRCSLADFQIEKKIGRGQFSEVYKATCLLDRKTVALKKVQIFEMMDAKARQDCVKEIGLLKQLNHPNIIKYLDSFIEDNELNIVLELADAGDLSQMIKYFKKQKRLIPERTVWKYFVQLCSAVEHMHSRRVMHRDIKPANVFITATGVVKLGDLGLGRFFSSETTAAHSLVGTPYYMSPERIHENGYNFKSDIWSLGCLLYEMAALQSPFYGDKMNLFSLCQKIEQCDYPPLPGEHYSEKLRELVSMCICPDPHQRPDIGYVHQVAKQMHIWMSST

[10] = target: GSK3B (human) (UniProt P49841)
Chain of GSK3B (human) (P49841 whole entry, looked up): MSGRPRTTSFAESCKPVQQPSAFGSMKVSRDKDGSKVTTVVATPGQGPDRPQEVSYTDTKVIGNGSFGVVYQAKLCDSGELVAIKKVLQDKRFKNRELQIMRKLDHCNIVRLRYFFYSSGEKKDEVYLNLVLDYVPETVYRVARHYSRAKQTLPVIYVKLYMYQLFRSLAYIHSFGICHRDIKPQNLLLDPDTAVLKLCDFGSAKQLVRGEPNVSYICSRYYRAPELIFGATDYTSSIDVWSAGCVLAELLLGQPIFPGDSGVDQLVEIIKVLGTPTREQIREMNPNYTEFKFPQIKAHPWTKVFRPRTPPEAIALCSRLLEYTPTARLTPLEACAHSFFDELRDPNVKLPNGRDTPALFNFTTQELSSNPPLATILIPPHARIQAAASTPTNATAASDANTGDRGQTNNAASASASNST

[11] = target: MAPK10 (human) (UniProt P53779)
[12] = target: CSNK2A1 (human) (UniProt P68400)
Chain of CSNK2A1 (human) (P68400 whole entry, looked up): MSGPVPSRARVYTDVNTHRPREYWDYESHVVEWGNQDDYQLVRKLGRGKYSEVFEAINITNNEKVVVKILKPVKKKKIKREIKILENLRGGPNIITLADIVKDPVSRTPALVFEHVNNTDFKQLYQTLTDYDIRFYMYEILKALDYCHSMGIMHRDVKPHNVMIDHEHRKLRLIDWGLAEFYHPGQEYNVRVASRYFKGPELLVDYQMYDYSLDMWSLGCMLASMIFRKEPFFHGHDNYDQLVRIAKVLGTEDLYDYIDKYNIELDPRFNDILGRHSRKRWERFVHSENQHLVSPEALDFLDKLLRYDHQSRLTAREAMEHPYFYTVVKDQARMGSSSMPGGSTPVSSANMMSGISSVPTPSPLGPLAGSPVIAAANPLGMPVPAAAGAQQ

[13] = test system: ROCK2 (rat); settings: accession and sequence are those of the human protein
[14] = target: NEK2 (human) (UniProt P51955)
Chain of NEK2 (human) (P51955 whole entry, looked up): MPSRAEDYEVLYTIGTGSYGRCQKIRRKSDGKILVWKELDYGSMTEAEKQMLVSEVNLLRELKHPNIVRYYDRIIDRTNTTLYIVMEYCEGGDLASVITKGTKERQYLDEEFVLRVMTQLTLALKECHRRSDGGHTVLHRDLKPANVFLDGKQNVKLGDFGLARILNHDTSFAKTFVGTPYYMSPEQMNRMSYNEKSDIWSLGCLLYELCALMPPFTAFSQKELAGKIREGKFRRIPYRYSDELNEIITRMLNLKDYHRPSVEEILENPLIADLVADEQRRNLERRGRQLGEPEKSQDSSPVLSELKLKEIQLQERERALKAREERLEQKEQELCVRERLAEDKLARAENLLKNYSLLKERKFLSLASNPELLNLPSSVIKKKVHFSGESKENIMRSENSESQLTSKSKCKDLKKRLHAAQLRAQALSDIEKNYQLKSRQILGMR

[15] = target: PHKG1 (human) (UniProt Q16816)
[16] = target: MAP3K9 (human) (UniProt P80192)
[17] = test system: PAK2 (human), Q13177 [T402E]
[18] = target: MAPK13 (human) (UniProt O15264)
[19] = target: SYK (human) (UniProt P43405)
[20] = test system: RPS6KB1 (human), P23443 [T412E]
Chain of RPS6KB1 (human), P23443 [T412E] (P23443 whole entry T412E, looked up): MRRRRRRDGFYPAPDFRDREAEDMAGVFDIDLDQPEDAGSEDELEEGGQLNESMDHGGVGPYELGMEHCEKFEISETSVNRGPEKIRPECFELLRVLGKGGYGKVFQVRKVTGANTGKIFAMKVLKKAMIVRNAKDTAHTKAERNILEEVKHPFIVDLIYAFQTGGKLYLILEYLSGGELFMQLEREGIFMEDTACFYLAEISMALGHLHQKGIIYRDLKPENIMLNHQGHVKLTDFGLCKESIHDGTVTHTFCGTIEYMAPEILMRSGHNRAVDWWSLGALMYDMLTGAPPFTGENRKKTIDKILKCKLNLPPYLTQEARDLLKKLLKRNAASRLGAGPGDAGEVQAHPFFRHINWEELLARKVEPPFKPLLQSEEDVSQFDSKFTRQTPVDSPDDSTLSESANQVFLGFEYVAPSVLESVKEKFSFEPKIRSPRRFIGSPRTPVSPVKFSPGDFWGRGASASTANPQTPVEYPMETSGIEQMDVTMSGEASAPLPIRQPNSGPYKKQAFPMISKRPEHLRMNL

[21] = target: SRPK1 (human) (UniProt Q96SB4)
[22] = target: MKNK1 (human) (UniProt Q9BUB5)
[23] = test system: LCK (mouse); settings: accession and sequence are those of the human protein
[24] = target: MAP2K1 (human) (UniProt Q02750)
[25] = target: INSR (human) (UniProt P06213)
[26] = target: INSRR (human) (UniProt P14616)
[27] = target: MARK1 (human) (UniProt Q9P0L2)
[28] = target: MAP2K6 (human) (UniProt P52564)
[29] = target: MYLK (human) (UniProt Q15746)
[30] = target: TBK1 (human) (UniProt Q9UHD2)
Chain of TBK1 (human) (Q9UHD2 whole entry, looked up): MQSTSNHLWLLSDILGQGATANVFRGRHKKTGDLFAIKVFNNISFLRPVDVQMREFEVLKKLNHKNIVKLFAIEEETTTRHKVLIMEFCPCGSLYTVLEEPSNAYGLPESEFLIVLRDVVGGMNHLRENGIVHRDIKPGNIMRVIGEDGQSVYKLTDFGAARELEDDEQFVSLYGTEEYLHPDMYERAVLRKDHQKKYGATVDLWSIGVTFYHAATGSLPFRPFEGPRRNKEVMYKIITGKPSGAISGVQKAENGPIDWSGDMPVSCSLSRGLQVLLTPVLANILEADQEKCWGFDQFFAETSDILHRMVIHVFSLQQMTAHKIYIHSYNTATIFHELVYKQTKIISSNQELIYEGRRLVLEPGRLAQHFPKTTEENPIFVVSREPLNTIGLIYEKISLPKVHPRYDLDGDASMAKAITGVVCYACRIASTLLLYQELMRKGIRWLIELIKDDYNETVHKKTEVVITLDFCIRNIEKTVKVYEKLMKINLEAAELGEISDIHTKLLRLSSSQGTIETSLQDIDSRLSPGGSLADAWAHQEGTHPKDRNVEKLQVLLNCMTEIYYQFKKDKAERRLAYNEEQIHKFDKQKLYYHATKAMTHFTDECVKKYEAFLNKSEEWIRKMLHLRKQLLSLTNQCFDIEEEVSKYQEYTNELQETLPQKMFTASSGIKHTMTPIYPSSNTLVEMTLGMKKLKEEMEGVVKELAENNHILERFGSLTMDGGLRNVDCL

[31] = test system: AKT1 (human), P31749 [S473D]
[32] = target: STK11 CAB39 STRADA (human) (UniProt Q9Y376+Q7RTN6+Q15831)
Chain of STK11 CAB39 STRADA (human) (Q15831 whole entry, looked up): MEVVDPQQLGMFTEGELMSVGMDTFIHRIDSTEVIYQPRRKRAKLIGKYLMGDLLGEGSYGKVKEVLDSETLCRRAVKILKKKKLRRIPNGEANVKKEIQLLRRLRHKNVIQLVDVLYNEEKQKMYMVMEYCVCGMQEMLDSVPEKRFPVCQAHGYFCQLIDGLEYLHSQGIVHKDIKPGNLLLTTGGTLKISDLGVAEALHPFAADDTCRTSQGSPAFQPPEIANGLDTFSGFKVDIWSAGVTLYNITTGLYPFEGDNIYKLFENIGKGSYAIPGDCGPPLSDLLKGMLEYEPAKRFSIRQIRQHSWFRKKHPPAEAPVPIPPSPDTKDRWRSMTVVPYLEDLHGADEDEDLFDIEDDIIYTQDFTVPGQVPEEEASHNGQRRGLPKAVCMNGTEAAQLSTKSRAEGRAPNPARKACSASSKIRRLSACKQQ
Chain of STK11 CAB39 STRADA (human) (Q7RTN6 whole entry, looked up): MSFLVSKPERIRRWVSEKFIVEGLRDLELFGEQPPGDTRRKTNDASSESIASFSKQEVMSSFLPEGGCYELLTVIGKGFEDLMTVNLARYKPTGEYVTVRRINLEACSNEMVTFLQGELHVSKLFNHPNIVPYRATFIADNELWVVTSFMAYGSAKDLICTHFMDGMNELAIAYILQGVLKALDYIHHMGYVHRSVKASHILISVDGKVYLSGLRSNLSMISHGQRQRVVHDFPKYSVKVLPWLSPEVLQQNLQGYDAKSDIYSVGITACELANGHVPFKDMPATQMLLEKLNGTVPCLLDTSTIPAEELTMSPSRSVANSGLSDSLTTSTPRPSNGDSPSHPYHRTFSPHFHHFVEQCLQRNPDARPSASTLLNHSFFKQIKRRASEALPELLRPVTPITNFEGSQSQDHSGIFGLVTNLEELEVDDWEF
Chain of STK11 CAB39 STRADA (human) (Q9Y376 whole entry, looked up): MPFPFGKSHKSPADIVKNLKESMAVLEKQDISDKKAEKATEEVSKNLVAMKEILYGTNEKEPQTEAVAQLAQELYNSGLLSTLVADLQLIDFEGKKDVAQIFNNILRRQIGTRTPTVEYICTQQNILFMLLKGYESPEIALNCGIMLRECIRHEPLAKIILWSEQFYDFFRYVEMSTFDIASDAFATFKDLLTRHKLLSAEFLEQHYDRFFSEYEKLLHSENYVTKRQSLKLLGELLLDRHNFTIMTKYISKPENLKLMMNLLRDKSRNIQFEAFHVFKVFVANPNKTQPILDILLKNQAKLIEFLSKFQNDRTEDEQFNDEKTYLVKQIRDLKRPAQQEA

[33] = target: MARK2 (human) (UniProt Q7KZI7)
[34] = target: IRAK4 (human) (UniProt Q9NWZ3)
[35] = target: EPHB1 (human) (UniProt P54762)
[36] = target: PIM3 (human) (UniProt Q86V86)

Q: How did the residual activity ([1]; compound 0.01 µM) turn out when `CNc1nc(-c2ccc3c(N)n[nH]c3c2)cc(N2C[C@@H](C(=O)NC3CCCCC3)CC[C@H]2C)n1` was run?
A: 125%

Q: And the residual activity ([1]; compound 0.1 µM)?
A: 118%

Q: And the residual activity ([1]; compound 1.0 µM)?
A: 107%

Q: What about the residual activity ([1]; compound 10.0 µM) of the same compound?
A: 56%

Q: What about the residual activity ([2]; compound 0.01 µM) of the same compound?
A: 119%

Q: What about the residual activity ([2]; compound 0.1 µM) of the same compound?
A: 119%

Q: What about the residual activity ([2]; compound 1.0 µM) of the same compound?
A: 105%

Q: And the residual activity ([2]; compound 10.0 µM)?
A: 88%

Q: And the residual activity ([3]; compound 0.01 µM)?
A: 113%

Q: What about the residual activity ([3]; compound 0.1 µM) of the same compound?
A: 129%

Q: And the residual activity ([3]; compound 1.0 µM)?
A: 105%

Q: What about the residual activity ([3]; compound 10.0 µM) of the same compound?
A: 109%

Q: What about the residual activity ([4]; compound 0.01 µM) of the same compound?
A: 110%

Q: What about the residual activity ([4]; compound 0.1 µM) of the same compound?
A: 118%

Q: What about the residual activity ([4]; compound 1.0 µM) of the same compound?
A: 100%

Q: And the residual activity ([4]; compound 10.0 µM)?
A: 84%

Q: What about the residual activity ([5]; compound 0.01 µM) of the same compound?
A: 90%

Q: And the residual activity ([5]; compound 0.1 µM)?
A: 102%

Q: And the residual activity ([5]; compound 1.0 µM)?
A: 118%

Q: And the residual activity ([5]; compound 10.0 µM)?
A: 81%

Q: And the residual activity ([6]; compound 0.01 µM)?
A: 90%

Q: What about the residual activity ([6]; compound 0.1 µM) of the same compound?
A: 98%

Q: What about the residual activity ([6]; compound 1.0 µM) of the same compound?
A: 84%

Q: What about the residual activity ([6]; compound 10.0 µM) of the same compound?
A: 61%

Q: What about the residual activity ([7]; compound 0.01 µM) of the same compound?
A: 97%

Q: And the residual activity ([7]; compound 1.0 µM)?
A: 97%

Q: And the residual activity ([7]; compound 10.0 µM)?
A: 110%

Q: And the residual activity ([8]; compound 0.01 µM)?
A: 100%

Q: What about the residual activity ([8]; compound 0.1 µM) of the same compound?
A: 103%

Q: What about the residual activity ([8]; compound 1.0 µM) of the same compound?
A: 94%

Q: What about the residual activity ([8]; compound 10.0 µM) of the same compound?
A: 88%

Q: And the residual activity ([9]; compound 0.01 µM)?
A: 98%

Q: What about the residual activity ([9]; compound 0.1 µM) of the same compound?
A: 101%

Q: What about the residual activity ([9]; compound 1.0 µM) of the same compound?
A: 84%

Q: And the residual activity ([9]; compound 10.0 µM)?
A: 79%

Q: And the residual activity ([10]; compound 0.01 µM)?
A: 108%

Q: And the residual activity ([10]; compound 0.1 µM)?
A: 111%

Q: What about the residual activity ([10]; compound 1.0 µM) of the same compound?
A: 106%

Q: What about the residual activity ([11]; compound 0.01 µM) of the same compound?
A: 106%

Q: And the residual activity ([11]; compound 0.1 µM)?
A: 106%

Q: And the residual activity ([11]; compound 10.0 µM)?
A: 97%

Q: What about the residual activity ([12]; compound 0.01 µM) of the same compound?
A: 103%

Q: And the residual activity ([12]; compound 0.1 µM)?
A: 104%

Q: And the residual activity ([12]; compound 1.0 µM)?
A: 91%

Q: What about the residual activity ([12]; compound 10.0 µM) of the same compound?
A: 111%

Q: And the residual activity ([13]; compound 0.01 µM)?
A: 96%

Q: And the residual activity ([13]; compound 0.1 µM)?
A: 92%

Q: What about the residual activity ([13]; compound 1.0 µM) of the same compound?
A: 67%

Q: And the residual activity ([13]; compound 10.0 µM)?
A: 27%

Q: And the residual activity ([14]; compound 0.01 µM)?
A: 118%

Q: What about the residual activity ([14]; compound 0.1 µM) of the same compound?
A: 118%

Q: What about the residual activity ([14]; compound 1.0 µM) of the same compound?
A: 94%

Q: And the residual activity ([14]; compound 10.0 µM)?
A: 91%

Q: And the residual activity ([15]; compound 0.01 µM)?
A: 106%

Q: And the residual activity ([15]; compound 0.1 µM)?
A: 108%

Q: What about the residual activity ([15]; compound 1.0 µM) of the same compound?
A: 101%

Q: What about the residual activity ([15]; compound 10.0 µM) of the same compound?
A: 78%

Q: What about the residual activity ([16]; compound 0.01 µM) of the same compound?
A: 110%

Q: What about the residual activity ([16]; compound 0.1 µM) of the same compound?
A: 111%

Q: What about the residual activity ([16]; compound 1.0 µM) of the same compound?
A: 93%

Q: And the residual activity ([16]; compound 10.0 µM)?
A: 78%

Q: And the residual activity ([17]; compound 0.01 µM)?
A: 105%

Q: And the residual activity ([17]; compound 0.1 µM)?
A: 119%

Q: What about the residual activity ([17]; compound 1.0 µM) of the same compound?
A: 102%

Q: What about the residual activity ([17]; compound 10.0 µM) of the same compound?
A: 77%

Q: What about the residual activity ([18]; compound 0.01 µM) of the same compound?
A: 106%

Q: What about the residual activity ([18]; compound 0.1 µM) of the same compound?
A: 113%

Q: What about the residual activity ([18]; compound 1.0 µM) of the same compound?
A: 93%

Q: What about the residual activity ([18]; compound 10.0 µM) of the same compound?
A: 101%

Q: And the residual activity ([19]; compound 0.01 µM)?
A: 109%

Q: What about the residual activity ([19]; compound 0.1 µM) of the same compound?
A: 105%

Q: What about the residual activity ([19]; compound 1.0 µM) of the same compound?
A: 104%

Q: And the residual activity ([19]; compound 10.0 µM)?
A: 105%

Q: And the residual activity ([20]; compound 0.01 µM)?
A: 111%

Q: What about the residual activity ([20]; compound 0.1 µM) of the same compound?
A: 106%

Q: And the residual activity ([20]; compound 1.0 µM)?
A: 108%

Q: And the residual activity ([20]; compound 10.0 µM)?
A: 81%

Q: And the residual activity ([21]; compound 0.01 µM)?
A: 106%

Q: And the residual activity ([21]; compound 0.1 µM)?
A: 120%

Q: What about the residual activity ([21]; compound 1.0 µM) of the same compound?
A: 104%

Q: And the residual activity ([21]; compound 10.0 µM)?
A: 90%

Q: And the residual activity ([22]; compound 0.01 µM)?
A: 106%

Q: And the residual activity ([22]; compound 0.1 µM)?
A: 108%

Q: And the residual activity ([22]; compound 1.0 µM)?
A: 111%

Q: What about the residual activity ([22]; compound 10.0 µM) of the same compound?
A: 92%

Q: What about the residual activity ([23]; compound 0.01 µM) of the same compound?
A: 112%

Q: And the residual activity ([23]; compound 0.1 µM)?
A: 107%

Q: What about the residual activity ([23]; compound 1.0 µM) of the same compound?
A: 97%

Q: What about the residual activity ([23]; compound 10.0 µM) of the same compound?
A: 99%

Q: And the residual activity ([24]; compound 0.01 µM)?
A: 86%

Q: What about the residual activity ([24]; compound 0.1 µM) of the same compound?
A: 101%

Q: And the residual activity ([24]; compound 1.0 µM)?
A: 85%

Q: What about the residual activity ([24]; compound 10.0 µM) of the same compound?
A: 74%

Q: And the residual activity ([25]; compound 0.01 µM)?
A: 101%

Q: What about the residual activity ([25]; compound 0.1 µM) of the same compound?
A: 103%

Q: What about the residual activity ([25]; compound 1.0 µM) of the same compound?
A: 101%

Q: And the residual activity ([25]; compound 10.0 µM)?
A: 89%

Q: What about the residual activity ([26]; compound 0.01 µM) of the same compound?
A: 111%

Q: What about the residual activity ([26]; compound 0.1 µM) of the same compound?
A: 111%

Q: What about the residual activity ([26]; compound 1.0 µM) of the same compound?
A: 117%

Q: What about the residual activity ([27]; compound 1.0 µM) of the same compound?
A: 99%

Q: What about the residual activity ([27]; compound 10.0 µM) of the same compound?
A: 84%

Q: What about the residual activity ([28]; compound 1.0 µM) of the same compound?
A: 87%

Q: What about the residual activity ([28]; compound 10.0 µM) of the same compound?
A: 94%

Q: And the residual activity ([29]; compound 0.01 µM)?
A: 116%

Q: What about the residual activity ([29]; compound 0.1 µM) of the same compound?
A: 113%

Q: What about the residual activity ([29]; compound 1.0 µM) of the same compound?
A: 99%

Q: What about the residual activity ([29]; compound 10.0 µM) of the same compound?
A: 62%

Q: What about the residual activity ([30]; compound 0.01 µM) of the same compound?
A: 110%

Q: What about the residual activity ([30]; compound 0.1 µM) of the same compound?
A: 115%

Q: And the residual activity ([30]; compound 1.0 µM)?
A: 89%

Q: What about the residual activity ([30]; compound 10.0 µM) of the same compound?
A: 81%

Q: What about the residual activity ([31]; compound 1.0 µM) of the same compound?
A: 98%

Q: What about the residual activity ([31]; compound 10.0 µM) of the same compound?
A: 36%

Q: What about the residual activity ([32]; compound 0.01 µM) of the same compound?
A: 104%

Q: What about the residual activity ([32]; compound 0.1 µM) of the same compound?
A: 124%

Q: And the residual activity ([32]; compound 1.0 µM)?
A: 110%

Q: What about the residual activity ([32]; compound 10.0 µM) of the same compound?
A: 103%

Q: What about the residual activity ([33]; compound 0.01 µM) of the same compound?
A: 113%

Q: And the residual activity ([33]; compound 0.1 µM)?
A: 114%

Q: And the residual activity ([33]; compound 1.0 µM)?
A: 96%

Q: And the residual activity ([33]; compound 10.0 µM)?
A: 102%

Q: What about the residual activity ([34]; compound 0.01 µM) of the same compound?
A: 109%

Q: And the residual activity ([34]; compound 0.1 µM)?
A: 112%

Q: And the residual activity ([34]; compound 1.0 µM)?
A: 92%

Q: And the residual activity ([34]; compound 10.0 µM)?
A: 99%

Q: What about the residual activity ([35]; compound 1.0 µM) of the same compound?
A: 111%

Q: What about the residual activity ([35]; compound 10.0 µM) of the same compound?
A: 118%

Q: And the residual activity ([36]; compound 0.01 µM)?
A: 105%

Q: And the residual activity ([36]; compound 0.1 µM)?
A: 112%

Q: And the residual activity ([36]; compound 1.0 µM)?
A: 94%

Q: What about the residual activity ([36]; compound 10.0 µM) of the same compound?
A: 73%
